Experimental data from patent publication US10221426B2, “Constitutively active PYR/PYL receptor proteins for improving plant stress tolerance” (The Regents of the University of California, priority 2009, dated 2019).

What was measured:
[1] = molecular target: T1, PYR1-HAB1 (Arabidopsis thaliana, UniProt O49686); experiment: Yeast two-hybrid BD-PYR1 / AD-HAB1 interaction, X-gal stain; assay type: cell-based; conditions: 10 μM, except epi-brassinolide (50 nM)
T1 construct: the Pyr1 open reading frame was PCR amplified from genomic DNA; expressed in transfected cells; host or cells: yeast strain Y190
T1 sequence (O49686 1-191): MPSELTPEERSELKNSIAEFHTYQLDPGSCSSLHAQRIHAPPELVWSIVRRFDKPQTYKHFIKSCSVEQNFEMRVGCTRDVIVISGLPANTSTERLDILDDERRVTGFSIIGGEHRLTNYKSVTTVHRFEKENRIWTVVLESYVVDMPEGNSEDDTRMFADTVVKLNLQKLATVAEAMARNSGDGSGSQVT
T1 sequence (Q9CAJ0 23-511 partner): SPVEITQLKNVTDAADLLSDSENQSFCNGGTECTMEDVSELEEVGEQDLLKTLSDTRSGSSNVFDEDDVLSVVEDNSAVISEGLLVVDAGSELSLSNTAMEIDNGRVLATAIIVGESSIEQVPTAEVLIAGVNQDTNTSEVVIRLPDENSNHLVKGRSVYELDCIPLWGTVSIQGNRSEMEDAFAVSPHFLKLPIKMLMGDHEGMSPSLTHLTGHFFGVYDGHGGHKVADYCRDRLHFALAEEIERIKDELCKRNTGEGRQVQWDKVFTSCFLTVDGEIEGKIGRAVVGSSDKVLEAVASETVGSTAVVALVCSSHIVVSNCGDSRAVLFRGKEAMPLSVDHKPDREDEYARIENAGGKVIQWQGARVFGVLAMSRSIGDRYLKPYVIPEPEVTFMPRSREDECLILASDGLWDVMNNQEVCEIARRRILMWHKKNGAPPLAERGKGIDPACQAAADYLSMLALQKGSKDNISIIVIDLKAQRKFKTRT
Description: (§1) Given that PYR1 is necessary for pyrabactin action and is a predicted ligand-binding protein, we hypothesized that pyrabactin agonizes ABA signaling by inducing a protein-protein interaction between PYR1 and a downstream effector. To test this, ˜2 million prey cDNA clones were screened against a PYR1 Y2H bait construct on media containing 10 μM pyrabactin. To create the PYR1 Y2H bait construct, the Pyr1 open reading frame was PCR amplified from genomic DNA and cloned to pGem-T easy vector (Promega). After sequence confirmation, the Pyr1 ORF was then cloned in-frame between EcoRI and SalI sites of the pBD-GAL4 Cam vector (Stratagene) and transformed into yeast strain Y190. For the screen, an etiolated seedling cDNA library (J. Kim, K., Harter, A., Theologis, Proc Natl Acad Sci USA 94, 11786 (Oct. 28, 1997)) (ABRC stock CD4-22) was used. The cDNA library was first converted from phage to plasmid DNA, yielding 7.6×10^7 transformants. Plasmid DNA prepared from library was then used to transform Y190 as described in the GAL4 Two-Hybrid system manual (Stratagene). For each screen, 40 μg of prey plasmid was transformed into 1 ml of competent Y190 cell harboring bait construct and then grown on SD agar plates lacking His, Leu, and Trp, but containing 15 mM 3-AT and 10 μM pyrabactin. After 4 days incubation at 30° C., well-grown colonies were rescued and interactions validated using filter lift assay or chloroform-agarose overlay method and X-Gal staining. This identified two pyrabactin-dependent hits which sequencing determined encoded cDNAs for the PP2C HAB1, a close relative of the well-characterized ABA response factor ABI1 (A. Saez et al., The Plant Journal 37, 354 (2004); N. Leonhardt et al., THE PLANT CELL 16, 596 (2004)). Next, Y2H strains expressing an AD-HAB1 fusion protein and a BD-PYR1 fusion protein were grown on plates and tested for interactions in response to various compounds, all at 10 μM except for epi-brassinolide (50 nM) and dimethyl sulfoxide (DMSO) (carrier solvent, 1%). […] Thus, PYR1 interacts with HAB1 in a (+)-ABA dependent fashion.

[2] = tested on: Arabidopsis seeds; experiment: Seed germination inhibition; assay type: in vivo; conditions: in vivo
Description: FIG. 1. Pyrabactin is a seed selective ABA agonist. (A) Structures of molecules described in this study. (B) Pyrabactin activity is suppressed by abi1-1. Seeds of the genotype shown at top were imbibed on media containing 25 μM pyrabactin and scored for germination 4 days after stratification. Shown at bottom are IC50 values for pyrabactin's germination effect on the genotypes characterized. (C) Microarray comparison of pyrabactin and ABA treatments in seeds. The Y-axis plots the log2 transformed value for a probe's response to 25 μM pyrabactin (relative to untreated control) and the X-axis a probe's response to 1 μM ABA. […] (D) Microarray comparison of cycloheximide and ABA responses in seeds. […] (E) Microarray comparison of pyrabactin and ABA responses in seedlings. Seven-day old seedlings were transferred to 10 μM ABA or 50 μM pyrabactin containing plates for 24 hours and then mRNA samples profiled. Inset in each scatter plot is the Pearson correlation coefficient for each comparison. Detailed microarray methods are described in the Examples section.
FIG. 2. PYR1 encodes an ABA responsive START-domain protein. (A) Pyr1 alleles. Shown are the allele names, strain names (in parentheses) and amino acid changes caused by the Pyr1 mutant alleles identified by screening for pyrabactin resistant mutations. (B) Pictographic representation of Pyr1 and Pyl1-Pyl4 expression values housed in public microarray databases. The heatmap shown at top right is for the first upper three panels and the bottom heatmap for the guard cell data. Plots were made using the eFP browser (D. Winter et al., PLoS ONE 2, e718 (2007)). (C) 35S::GFP-PYR1 complements pyr1-1. Seeds of the genotypes shown were stratified 4 days on 25 μM pyrabactin and then germinated at RT, 90% RH for 3 days in darkness. […] (D) Pyr/Pyls are required for normal ABA-induced gene expression in seedlings. Shown are qRT-PCR results for the ABA-responsive gene RD29. L, Ler; C, Col; and Q, quadruple mutant. (E) Pyr/Pyl genes are required for normal ABA-induced stress-induced gene expression in seedlings. Shown are qRT-PCR results for two ABA-responsive taqman probes, as described in the Examples section. L=Ler, C=Col, Q=quadruple mutant.
As part of an earlier effort, we identified a germination inhibitor named pyrabactin (Y. Zhao et al., Nat Chem Biol 3, 716 (2007)). […] To test this hypothesis, we examined the pyrabactin sensitivity of mutant lines with altered ABA signaling, biosynthesis or gibberellic acid (GA) perception.
We next performed microarray experiments to evaluate the similarity of the transcriptional responses induced by ABA and pyrabactin treatments. For microarray, tissue was prepared and RNA extracted from Columbia wild type seeds sown on 0.5×MS media (˜2500 seeds per 150 mm plate) containing either 1 μM ABA, 25 μM pyrabactin, 25 μM 2,4-Dinitrophenol (DNP), 1 μM cycloheximide, 2 μM methotrexate or 1% DMSO control plates (all chemicals are dissolved in DMSO). The concentrations utilized for these experiments were normalized for germination inhibition activity by dose curve analyses, i.e. the amount of both compounds required to ensure 100% inhibition of germination when scored 3 days post-imbibition. ABA (±stereoisomers), DNP, cycloheximide and methotrexate were purchased from Sigma Aldrich. Seeds were stratified for 4 days and then incubated in the dark at room temperature for 24 hours. […]

[3] = molecular target: T2, PYL3-HAB1 (Arabidopsis thaliana, UniProt Q9SSM7); experiment: Yeast two-hybrid BD-PYL3 / AD-HAB1 interaction; assay type: cell-based
T2 construct: BD-PYR/PYL fusion proteins were constructed in the same manner as for BD-PYR1 above; expressed in transfected cells; host or cells: yeast (Y190, as for BD-PYR1)
T2 sequence (Q9SSM7 1-209): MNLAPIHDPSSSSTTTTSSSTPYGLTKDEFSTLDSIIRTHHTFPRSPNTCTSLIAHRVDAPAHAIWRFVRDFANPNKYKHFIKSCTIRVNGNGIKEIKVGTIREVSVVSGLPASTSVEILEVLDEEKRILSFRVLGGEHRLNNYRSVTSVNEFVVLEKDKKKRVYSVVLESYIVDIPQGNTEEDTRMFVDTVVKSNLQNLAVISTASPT
T2 sequence (Q9CAJ0 23-511 partner): T1 sequence (Q9CAJ0 23-511 partner)
Description: as §1
(§2) To see if ABA and pyrabactin responsiveness is unique to PYR1, we tested 11 of the 13 PYL proteins as described above, using Y2H strains expressing an AD-HAB1 fusion protein and a BD-PYR/PYL fusion protein (listed at the left of FIG. 3A). BD-PYR/PYL fusion proteins were constructed in the same manner as for BD-PYR1 above. […] Of these, only Pyr1 is highly transcribed in seeds, which likely explains why mutations in Pyr1 cause the seeds to be insensitive to pyrabactin. […] However the interactions of PYLs 5-12 with the PP2Cs are indicative that the entire protein family is likely to share a similar mechanism of action involving PP2C modulation, as we describe below. Thus, we conclude that entire family modulates ABA responses via PP2C interactions.
The yeast strains expressing PYR/PYL receptors and type 2 C protein phosphatases were also used to screen HPLC-fractionated plant extracts for the presence of endogenous compounds that activate PYL/PYL receptors PYR1, PYL2, PYL3, and/or PYL4. HPLC fractionation of extracts was used to identify compounds different from abscisic acid (the known agonist). […] Purification of the agonist was achieved via multiple rounds of chromatographic separation coupled to yeast two hybrid assays that informed the fractions to move forward at each step of the purification. The structure of the purified agonist was deduced by X-ray crystallography of crystalline purified agonist.

[4] = molecular target: T3, PYL4-HAB1 (Arabidopsis thaliana, UniProt O80920); experiment: Yeast two-hybrid BD-PYL4 / AD-HAB1 interaction; assay type: cell-based
T3 construct: BD-PYR/PYL fusion proteins were constructed in the same manner as for BD-PYR1 above; expressed in transfected cells; host or cells: yeast (Y190, as for BD-PYR1)
T3 sequence (O80920 1-207): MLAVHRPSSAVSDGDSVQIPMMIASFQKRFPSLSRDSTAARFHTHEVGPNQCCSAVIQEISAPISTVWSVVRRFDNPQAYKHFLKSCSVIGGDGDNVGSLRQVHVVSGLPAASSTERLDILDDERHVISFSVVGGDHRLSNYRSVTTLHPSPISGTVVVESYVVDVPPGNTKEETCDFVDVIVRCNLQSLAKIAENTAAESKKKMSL
T3 sequence (Q9CAJ0 23-511 partner): T1 sequence (Q9CAJ0 23-511 partner)
Description: as §1
as §2, with “Thus, we conclude that entire family modulates ABA responses via PP2C interactions.” left out

[5] = molecular target: T4, PYL2-HAB1 (Arabidopsis thaliana, UniProt O80992); experiment: Yeast two-hybrid BD-PYL2 / AD-HAB1 interaction, X-gal stain; assay type: cell-based; conditions: 10 μM
T4 construct: BD-PYR/PYL fusion proteins were constructed in the same manner as for BD-PYR1 above; expressed in transfected cells; host or cells: yeast (Y190, as for BD-PYR1)
T4 sequence (O80992 1-190): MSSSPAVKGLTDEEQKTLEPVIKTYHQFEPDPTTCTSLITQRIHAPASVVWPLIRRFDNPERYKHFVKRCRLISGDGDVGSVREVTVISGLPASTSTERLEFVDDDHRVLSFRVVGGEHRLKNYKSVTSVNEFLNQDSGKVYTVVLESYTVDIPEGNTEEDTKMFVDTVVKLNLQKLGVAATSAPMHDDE
T4 sequence (Q9CAJ0 23-511 partner): T1 sequence (Q9CAJ0 23-511 partner)
Description: as §1, with “fashion. […]” for “fashion.”

[6] = plant extract screen and related commercial compounds

| Molecule | PYR1-HAB1 interaction by X-gal stain [1] | other results |
| --- | --- | --- |
| O=C(O)COc1ccc(Cl)cc1Cl [2,4-D] | neither (−)-ABA, kinetin, 2,4-D, Gibberellic acid (GA), epi-brassinolide (BR), methyl jasmonate (meJA) or apyrabactin showed activity |  |
| C=C1C[C@]23C[C@@]1(O)CC[C@H]2[C@@]12C=C[C@H](O)[C@@](C)(C(=O)O1)[C@H]2[C@@H]3C(=O)O [Gibberellic acid] | neither (−)-ABA, kinetin, 2,4-D, Gibberellic acid (GA), epi-brassinolide (BR), methyl jasmonate (meJA) or apyrabactin showed activity |  |
| O=S(=O)(NCc1ccccc1)c1ccc(Br)c2ccccc12 [apyrabactin] | neither (−)-ABA, kinetin, 2,4-D, Gibberellic acid (GA), epi-brassinolide (BR), methyl jasmonate (meJA) or apyrabactin showed activity | effect on germination [2]: inactive analog |
| C=C(C(=O)O)[C@@H]1CC[C@@H](C)[C@@H]2CCC(C)=C[C@@H]21 [artemisinic acid] |  | PYL3 agonist activity in yeast two hybrid assays [3, 6]: PYL3/PYL4 selective agonist; PYL4 agonist activity in yeast two hybrid assays [4, 6]: PYL3/PYL4 selective agonist |
| CC(C)[C@@H](C)[C@@H](O)[C@H](O)[C@@H](C)[C@H]1CC[C@H]2[C@@H]3COC(=O)[C@H]4C[C@H](O)[C@H](O)C[C@]4(C)[C@H]3CC[C@]12C [epi-brassinolide] | neither (−)-ABA, kinetin, 2,4-D, Gibberellic acid (GA), epi-brassinolide (BR), methyl jasmonate (meJA) or apyrabactin showed activity |  |
| c1coc(CNc2ncnc3[nH]cnc23)c1 [kinetin] | neither (−)-ABA, kinetin, 2,4-D, Gibberellic acid (GA), epi-brassinolide (BR), methyl jasmonate (meJA) or apyrabactin showed activity |  |
| CC/C=C\CC1C(=O)CCC1CC(=O)OC (stereo not shown) [methyl jasmonate] | neither (−)-ABA, kinetin, 2,4-D, Gibberellic acid (GA), epi-brassinolide (BR), methyl jasmonate (meJA) or apyrabactin showed activity |  |
| (−)-ABA | neither (−)-ABA, kinetin, 2,4-D, Gibberellic acid (GA), epi-brassinolide (BR), methyl jasmonate (meJA) or apyrabactin showed activity | PYL3-HAB1 interaction by X-gal stain ([3]; 10 μM): respond; PYL4-HAB1 interaction by X-gal stain ([4]; 10 μM): respond; PYL2-HAB1 interaction by X-gal stain [5]: respond |
